Experimental data published in patent publication US20250281498A1, “FUSED AMINO PYRIMIDINE COMPOUNDS FOR TREATMENT OF SYNUCLEINOPATHIES AND TDP-43 PROTEINOPATHIES” (Ovid Therapeutics Inc., priority 2024, published 2025).

Experiments:
[1] = system: 18-20 Div hippocampal neurons; experiment: gramicidin-perforated patch-clamp recording of EGABA in hippocampal neurons; format: cell-based, Sprague Dawley; conditions: 300 nM
Experimental: Neuronal Cultures. Hippocampal neurons were prepared from Sprague Dawley E18 embryos and plated at 450,000 per dish and maintained at 37° C. in a humidified 5% CO2 incubator for 10-25 days before experimentation (Lee et al., Nat. Neurosci. 14, 736-743 (2011)).
At this developmental stage, GABAAR receptor activation leads to hyperpolarization, a phenomenon critically dependent upon KCC2 (Kontou et al., J Biol Chem, 100364 (2021)).
Neuronal Patch clamp assays. Neuronal cell culture recordings were performed in bath saline at 34° C. For gramicidin perforated-patch experiments, pipettes contained (in mM): 140 KCl and 10 HEPES, pH 7.4 KOH. For whole-cell experiments, pipettes contained (in mM): 115 K-meth-SO4, 30 KCl, 2 Mg-ATP, 4 Na-ATP, 0.4 Na-GTP, and 10 HEPES, pH 7.4 KOH. Bath saline contained the following (in mM): 140 NaCl, 2.5 KCl, 2.5 CaCl2, 2.5 MgCl2, 10 HEPES, and 11 glucose, pH 7.4 NaOH (Kontou et al., 2021, supra). All compound solutions were applied to cells using a three-barreled 700 μm pipe positioned just above the cell (Warner Instruments). […] All voltages from whole-cell experiments were corrected offline using a calculated liquid junction potential value (13.6 mV) in Clampex (Molecular Devices). For gramicidin perforated-patch experiments, intracellular Cl^− values were back-calculated using measured EGABA values and the Nernst equation: […]

KCC2-S940A = target: T1, KCC2-S940A (Homo sapiens, UniProt Q9H2X9, S963A); experiment: TI+ flux assay, HEK-293 cells expressing KCC2-S940A; format: cell-based
T1 construct: expressed in transfected cells; host or cells: HEK-293
T1 sequence (Q9H2X9 1-1116 isoform Q9H2X9-2 S940A): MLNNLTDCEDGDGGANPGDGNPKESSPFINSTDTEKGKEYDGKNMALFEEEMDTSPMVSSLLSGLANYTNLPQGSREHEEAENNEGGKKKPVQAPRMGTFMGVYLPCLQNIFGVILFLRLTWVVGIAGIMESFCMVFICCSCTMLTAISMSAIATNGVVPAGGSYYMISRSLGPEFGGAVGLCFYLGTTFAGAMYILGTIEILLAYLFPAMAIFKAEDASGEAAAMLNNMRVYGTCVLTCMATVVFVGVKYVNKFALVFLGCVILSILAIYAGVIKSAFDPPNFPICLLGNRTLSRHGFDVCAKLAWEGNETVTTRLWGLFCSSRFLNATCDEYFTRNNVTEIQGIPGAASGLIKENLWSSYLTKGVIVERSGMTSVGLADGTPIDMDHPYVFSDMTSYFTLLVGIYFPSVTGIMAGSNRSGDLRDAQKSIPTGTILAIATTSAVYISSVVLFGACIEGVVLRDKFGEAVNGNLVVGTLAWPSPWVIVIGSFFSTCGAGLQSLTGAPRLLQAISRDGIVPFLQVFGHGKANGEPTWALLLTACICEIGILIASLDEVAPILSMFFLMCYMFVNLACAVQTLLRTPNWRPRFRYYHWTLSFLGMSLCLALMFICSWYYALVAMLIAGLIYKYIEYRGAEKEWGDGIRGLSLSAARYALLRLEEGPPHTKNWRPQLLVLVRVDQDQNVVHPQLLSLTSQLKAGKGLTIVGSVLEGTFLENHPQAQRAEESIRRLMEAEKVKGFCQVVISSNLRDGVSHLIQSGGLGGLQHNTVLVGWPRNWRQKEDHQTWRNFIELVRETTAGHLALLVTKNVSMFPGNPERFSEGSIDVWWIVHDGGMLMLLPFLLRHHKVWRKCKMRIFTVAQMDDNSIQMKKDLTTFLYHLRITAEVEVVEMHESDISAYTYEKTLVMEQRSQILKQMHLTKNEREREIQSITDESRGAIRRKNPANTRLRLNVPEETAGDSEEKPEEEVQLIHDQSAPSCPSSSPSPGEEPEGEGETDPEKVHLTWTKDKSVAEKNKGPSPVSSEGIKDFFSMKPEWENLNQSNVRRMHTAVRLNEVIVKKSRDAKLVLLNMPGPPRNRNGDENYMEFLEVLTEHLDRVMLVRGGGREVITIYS
Experimental: FLIPR TI Flux assay. HEK-293 cells were washed with HBSS, and then incubated with loading buffer containing TI sensitive fluorescent dye (https://www.moleculardevices.com), 20 μM bumetanide 20 μM ouabain and 2.5 mM probenecid for 1 h at room temperature (RT) under control conditions or with drugs in the dark using a FlexStation 3 microplate reader (Molecular Devices) and imaged […] for 30 min. Stimulus buffer was added containing 5 mM K^+/0.5 mM Tl^+ and cells were imaged every 1.5 over a 190 second time course The initial rate Tl^+ uptake (Relative Fluorescence Units (RFU) per second) was determined following addition of the stimulus buffer as outlined previously (Conway et al., 2017, supra) (Lee et al., 2022, supra).
Several studies have shown that the activity and plasma membrane accumulation of KCC2 is potentiated via phosphorylation of S940, a process mediated by the activity of protein kinase C and protein phosphatase 1 (Lee et al., 2011, supra; Lee et al., J Biol Chem 282, 29777-29784 (2007); Moore et al., Proc. Natl. Acad. Sci. U.S.A. 115, 10166-10171 (2018); Moore et al., Trends Neurosci. 40, 555-571 (2017); Silayeva et al., Proc. Natl. Acad. Sci. U.S.A. 112, 3523-3528 (2015)). […] Compared to KCC2, effects on KCC3, KCC4, and NKCC1 were only seen at concentrations more than 35-fold that of KCC2 (>100 μM) (FIG. 1G).

What does the source list for `C[C@@H]1CN(c2nc3c(c(Nc4ccc(C5CCCCC5)cc4)n2)COC3)CCO1` [Compound A, (R)—N-(4-cyclohexylphenyl)-2-(2-methylmorpholino)-5,7-dihydrofuro[3,4-d]pyrimidin-4-amine]?
reduction in neuronal Cl− ([1]; 15 min, calculated from EGABA): 2.2 ± 0.6 mM; EGABA after treatment ([1]; at 15 min (from −75±3.1 at 0 min), bumetanide and TTX present): −85.1±4.2 mV; activity of KCC2-S940A construct (KCC2-S940A): increased the activity
